Laboratory results from patent US12186356B2, “Composition for preventing, alleviating, or treating allergic skin disease comprising as active ingredient extract of gardenia fruit from which pigment is removed” (KOREA INSTITUTE OF ORIENTAL MEDICINE, priority 2018, dated 2025).

Tests used:
[1] = test system: NC/Nga mouse with induced allergic atopic dermatitis (house dust mite antigen); assay: Skin state and number of scratching (itching) in an animal model with allergic atopic dermatitis, extract applied on skin; assay type: in vivo; conditions: applied on skin once a day for 14 days; itching counted for 20 minutes; p<0.001; FIG. 3
Method: On the skin of a 8-week old NC/Nga mouse, 100 mg of an ointment (AD Biostir, Japan) which contains components originating from house dust mite as an antigen causing allergic atopy were applied, total 6 times for 21 days with an interval of 3 to 4 days to induce allergic atopic dermatitis. Seven days after inducing allergic atopic dermatitis, the animal was applied with 1 mg/ml of the pharmaceutical (extract of gardenia fruit (GJE 1%), extract of gardenia fruit from which pigment is removed (GJE-CR 1%), or tacrolimus), once a day for 14 days. Thereafter, using the mouse with induced allergic dermatitis, number of itching for 20 minutes and level of skin damage on ear and back of the animal were examined once a week. All the measurement results are expressed in terms of mean and standard deviation (SD), and a difference among test groups was subjected to a statistical analysis using one-way ANOVA. Statistical significance was recognized when p is less than 0.05 (p<0.05).

[2] = test system: inflammatory cells; assay: Change in inflammatory cell infiltration in ear and back skin tissues, H&E staining; assay type: in vivo, NC/Nga mouse; conditions: skin tissues of back and ear; applied on skin; p<0.01 or p<0.001; FIG. 4
Method: (§1) On the skin of a 8-week old NC/Nga mouse, 100 mg of an ointment (AD Biostir, Japan) which contains components originating from house dust mite as an antigen causing allergic atopy were applied, total 6 times for 21 days with an interval of 3 to 4 days to induce allergic atopic dermatitis. Seven days after inducing allergic atopic dermatitis, the animal was applied with 1 mg/ml of the pharmaceutical (extract of gardenia fruit (GJE 1%), extract of gardenia fruit from which pigment is removed (GJE-CR 1%), or tacrolimus), once a day for 14 days. Skin tissues of the ear and back of a mouse with induced allergic dermatitis were collected and, by H&E (hematoxylin and eosin) staining and use of an image measuring program (Solution FL ver 9.1), a change in inflammatory cell infiltration was determined. All the measurement results are expressed in terms of mean and standard deviation (SD), and a difference among test groups was subjected to a statistical analysis using one-way ANOVA. Statistical significance was recognized when p is less than 0.05 (p<0.05).

[3] = test system: mast cells; assay: Number of mast cells in ear and back skin tissues, toluidine blue staining; assay type: in vivo, NC/Nga mouse; conditions: applied on skin, p<0.01 or p<0.001, FIG. 5
Method: as §1, with “toluidine blue (TB)” for “H&E (hematoxylin and eosin)”, “number of mast cells” for “a change in inflammatory cell infiltration”

[4] = test system: NC/Nga mouse with induced allergic atopic dermatitis (house dust mite antigen); assay: Number of itching in an animal model with allergic atopic dermatitis, extract orally administered; assay type: in vivo; conditions: oral 100 mg/kg or 200 mg/kg once a day for 14 days; itching counted for 20 minutes; p<0.05 to p<0.001; FIG. 6
Method: On the skin of a 8-week old NC/Nga mouse, 100 mg of an ointment (AD Biostir, Japan) which contains components originating from house dust mite as an antigen causing allergic atopy were applied, total 6 times for 21 days with an interval of 3 to 4 days to induce allergic atopic dermatitis. On a day of starting the test, 150μl of 4% SDS were applied to the animal, and, after allowing it to stand for 1 hour, 100 mg of the house dust mite antigen were applied to back and both ears of the animal, respectively. Seven days after inducing allergic atopic dermatitis, the animal was orally administered with 100 mg/kg or 200 mg/kg of the pharmaceutical (extract of gardenia fruit or extract of gardenia fruit from which pigment is removed), once a day for 14 days.
Thereafter, using the animal model with induced allergic dermatitis, number of itching in the ear and back of the animal for 20 minutes was examined once a week to compare the effects obtained according to administration of a pharmaceutical. All the measurement results are expressed in terms of mean and standard deviation (SD), and a difference among test groups was subjected to a statistical analysis using one-way ANOVA. Statistical significance was recognized when p is less than 0.05 (p<0.05).

SMILES | number of scratching (number of itching) compared to the control group (Control) [1] | inflammatory cells compared to the control group (Control) [2] | mast cells compared to the control group (Control) [3] | number of scratching (number of itching) over days compared to the control group (Control) [4]
C=CC[C@@H]1/C=C(\C)C[C@H](C)C[C@H](OC)[C@H]2O[C@@](O)(C(=O)C(=O)N3CCCC[C@H]3C(=O)O[C@H](/C(C)=C/[C@@H]3CC[C@@H](O)[C@H](OC)C3)[C@H](C)[C@@H](O)CC1=O)[C@H](C)C[C@@H]2OC [tacrolimus] | decreased with statistical significance | decreased with statistical significance | decreased with statistical significance | 
C[C@]12C=CC(=O)C=C1CC[C@@H]1[C@@H]2[C@@H](O)C[C@@]2(C)[C@H]1CC[C@]2(O)C(=O)CO [prednisolone] |  |  |  | decreased with statistical significance
